From patent publication US11442059B2, “Method for treating a chronic itch condition by administering small molecule MrgprX4 antagonists” (The Johns Hopkins University, priority 2017, dated 2022)
Where “and” joins values, the source holds several entries; their conditions need not be identical. Equal values may be shown once. Values belong to the molecule of their own block, whether it stands above or below them. No end group written: not given here.

Experiments:
[1] = biological target: T1, MRGPRX3 (Homo sapiens, UniProt Q96LB0); experiment: Ca2+ response of HEK cells expressing MRGPRX3; format: cell-based
T1 construct: expressed in transfected cells; host or cells: HEK cells

[2] = system: human keratinocytes; experiment: Ca2+ response of primary human keratinocytes; format: cell-based
[3] = biological target: T2, MrgprA1 (Mus musculus, UniProt Q91WW5); experiment: FLIPR calcium assay (Flexstation3), HEK cells stably expressing MrgprA1; format: cell-based; details: HEK cells, FLIPR calcium dye, FIG. 18A
T2 construct: expressed in transfected cells; whole cells or crude membrane fraction
T2 sequence (Q91WW5 1-304): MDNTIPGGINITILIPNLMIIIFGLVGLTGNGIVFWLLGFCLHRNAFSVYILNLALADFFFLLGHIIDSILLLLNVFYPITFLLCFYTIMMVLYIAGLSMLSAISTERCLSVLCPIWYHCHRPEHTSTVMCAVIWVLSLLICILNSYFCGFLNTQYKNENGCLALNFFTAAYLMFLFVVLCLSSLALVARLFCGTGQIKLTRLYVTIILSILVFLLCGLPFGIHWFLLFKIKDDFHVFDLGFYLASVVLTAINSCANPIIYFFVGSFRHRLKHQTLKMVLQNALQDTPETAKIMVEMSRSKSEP
Method: (§1) EC50s were calculated using HEK cells stably expressing either MrgprA1 or MrgprX4. Cells were loaded with FLIPR calcium imaging dye, and a Flexstation3 machine (Molecular Devices) was used for reading changes in fluorescence. Wells were run in triplicate, and all values from each plate were normalized to the highest responding well. […] The x-axis depicts a modified logarithmic scale. […] FIG. 18B is a graph depicting the EC50 for MrgprX4 for bilirubin is approximately 3 μM.

[4] = biological target: T2, MrgprA1; experiment: Fura 2-AM calcium imaging, EC50 and IC50 determinations, MRGPRA1 HEK293 cells; format: cell-based; details: HEK293 cells, Fura 2-AM; interval [96, 220]; read-out: EC50 calcium response MRGPRA1
Method: (§2) Cells were imaged in calcium imaging buffer (CIB; 10 mM HEPES, 1.2 mM NaHCO3, 130 mM NaCl, 3 mM KCl, 2.5 mM CaCl2, 0.6 mM MgCl2, 20 mM glucose, and 20 mM sucrose at pH 7.4 and 290-300 mOsm). To monitor changes in intracellular [Ca^2+] ([Ca^2+]i), cells were loaded with either Fura 2-AM (HEK293 cells) or Fluo 4-AM (DRG neurons and mast cells) for 30 min in the dark at 37° C. in CIB just prior to imaging. With Fura 2-AM, emission at 510 nm was monitored from excitation at both 340 nm and 380 nm. With Fluo 4-AM, emission at 520 nm was monitored from excitation at 488 nm. Cells were identified as responding if the intracellular [Ca^2+] rose by either 50% compared to baseline or 50% compared to the [Ca^2+]i change assayed during addition of 50 mM KCl (neurons only). Damaged, detached, high-baseline, and motion-activated cells were excluded from analysis.
(§3) In initial screens, HEK293 cells stably expressing the murine G-protein alpha-subunit Gα15, a unique Gα protein that non-selectively couples a large variety of GPCRs to phospholipase C^30, were plated on poly-D-lysine-coated coverslips and transiently transfected with constructs encoding the MRGRPR of interest. 12-24 h later, cells were loaded with the Fura 2-AM. Unless otherwise specified, compounds were perfused into the imaging chamber for approximately thirty seconds after a baseline period was established. Response was then monitored at 5 s intervals for an additional 60 s.
(§4) HEK293 cells stably expressing either MRGPRA1, MRGPRX4, and MRGRPC11 were seeded in poly-D-lysine-coated 96-well plates at 10,000 cells/well. Cells were loaded with Fura 2-AM, washed twice, and maintained in CIB. Haem metabolites were freshly dissolved in DMSO in dim light and then diluted into a buffer comprised of 20 mM Tris and 150 mM NaCl at pH 8.8. Potential changes in pH were evaluated prior to each experiment. EC50 values were determined from dose-responses performed in triplicate, repeated 2-4 times. To determine potential antagonism by QWF against bilirubin, cells were treated with varying doses of QWF for 1 min in CIB prior to application of agonist.

[5] = biological target: T2, MrgprA1; experiment: Microscale thermophoresis binding assay, MRGPRA1
Method: (§5) Binding isotherms for MRGPRA1, MRGPRX4, and MRGRPC11 towards various ligands were determined by microscale thermophoresis with the NanoTemper monolith NT.115 instrument^27. Ligands were pre-incubated with 10 μM of the GFP-tagged receptor of interest for 5 minutes at room temperature in binding buffer (20 mM Tris and 150 mM NaCl at pH 8.8). Receptors were crudely purified as a membrane fraction from cells stably expressing the receptor^45. Haem metabolites were freshly dissolved in 0.1 M NaOH in dim light and then diluted into assay buffer. Lyophilized BAMS-22 was dissolved in binding buffer. The pH of each ligand was evaluated prior to incubation with a receptor. Samples were loaded into NT.115 Hydrophobic-Treated Capillaries from NanoTemper. Microscale thermophoretic experiments were executed using 20% LED power and 15% MST power. KDs were calculated using the law of mass action with data from three independent experiments. Binding between bilirubin and receptors was evaluated purely thermophoretically, whereas binding between BAMS-22 and MRGPRC11 was evaluated by T-Jump. Samples with dramatic deviations in initial fluorescence were excluded.

[6] = system: DRG neurons; experiment: Calcium imaging of dissociated DRG neurons; format: cell-based, mouse; details: Venn diagram FIG. 30A; Overlap=13
[7] = system: mice; experiment: Acute itch behaviour after injection (scratching bouts); format: in vivo, mouse; details: bilirubin injection
[8] = biological target: T3, MRGPRX4 (Homo sapiens, UniProt Q96LA9); experiment: FLIPR calcium assay (Flexstation3), HEK cells stably expressing MrgprX4; format: cell-based; design: expressed in transfected cells; whole cells or crude membrane fraction; details: FLIPR calcium dye, FIG. 18B
Method: as §1

[9] = biological target: T3, MRGPRX4; experiment: Fura 2-AM calcium imaging, EC50 determinations, MRGPRX4 HEK293 cells; format: cell-based; design: expressed in transfected cells; whole cells or crude membrane fraction; details: HEK293 cells, Fura 2-AM; interval [44, 87]; read-out: EC50 calcium response MRGPRX4
Method: as §2, §3
as §4, with “To determine potential antagonism by QWF against bilirubin, cells were treated with varying doses of QWF for 1 min in CIB prior to application of agonist.” left out

[10] = biological target: T3, MRGPRX4; experiment: Microscale thermophoresis binding assay, MRGPRX4; design: expressed in transfected cells; whole cells or crude membrane fraction
Method: as §5

[11] = biological target: T4, MrgprA6 (Mus musculus, UniProt Q91ZC6); experiment: Ca2+ response of cells expressing mouse MrgprA6; format: cell-based
T4 construct: expressed in transfected cells; host or cells: HEK293 (transient, pcDNA3.1)
T4 sequence (Q91ZC6 1-301): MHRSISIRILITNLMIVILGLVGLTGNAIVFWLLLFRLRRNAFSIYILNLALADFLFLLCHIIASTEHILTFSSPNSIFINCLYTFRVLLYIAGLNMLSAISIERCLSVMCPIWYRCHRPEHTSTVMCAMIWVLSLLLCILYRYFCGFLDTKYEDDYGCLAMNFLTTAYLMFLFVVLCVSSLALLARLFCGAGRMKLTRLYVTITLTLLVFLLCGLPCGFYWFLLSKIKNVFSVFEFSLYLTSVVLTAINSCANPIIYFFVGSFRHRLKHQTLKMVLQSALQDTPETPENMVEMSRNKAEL

[12] = system: MrgprA1, A4, A12, B3, and B6; experiment: Ca2+ response of cells expressing other keratinocyte Mrgprs; format: cell-based, mouse

T3 sequence (Q96LA9 whole entry): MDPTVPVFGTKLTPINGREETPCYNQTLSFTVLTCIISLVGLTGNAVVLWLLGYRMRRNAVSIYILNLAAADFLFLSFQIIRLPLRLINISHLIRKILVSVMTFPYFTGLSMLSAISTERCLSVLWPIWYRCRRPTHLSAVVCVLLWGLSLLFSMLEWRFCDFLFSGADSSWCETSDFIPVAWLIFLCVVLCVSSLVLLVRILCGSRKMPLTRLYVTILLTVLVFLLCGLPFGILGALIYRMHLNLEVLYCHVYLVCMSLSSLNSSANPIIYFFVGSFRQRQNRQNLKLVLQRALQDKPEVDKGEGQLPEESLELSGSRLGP
T1 sequence (Q96LB0 whole entry): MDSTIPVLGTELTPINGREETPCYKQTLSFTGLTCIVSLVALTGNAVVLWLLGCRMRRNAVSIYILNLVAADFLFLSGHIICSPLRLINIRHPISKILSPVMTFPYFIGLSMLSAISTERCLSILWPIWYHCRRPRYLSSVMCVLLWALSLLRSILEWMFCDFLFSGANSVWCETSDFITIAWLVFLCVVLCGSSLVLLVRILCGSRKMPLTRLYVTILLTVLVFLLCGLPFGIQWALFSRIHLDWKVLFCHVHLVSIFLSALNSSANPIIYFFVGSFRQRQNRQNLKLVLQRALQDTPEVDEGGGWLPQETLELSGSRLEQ

Ca2+ response of MRGPRX3 HEK cells [1]: robust Ca^2+ response
Molecule: hBD3: synthetic human Beta-defensin 3, antimicrobial peptide (GIINTLQKYYCRVRGGRCAVLSCLPKEEQIGKCSTRGRKCCRRKK; ends and bridges not checked; cysteine pairing not given here)
percentage of keratinocytes that responded ([2]; primary human keratinocytes after MRGPRX3 siRNA knock down): < 20%
percentage of keratinocytes that responded ([2]; primary human keratinocytes, control): > 80%

EC50 [3]: ~49 µM
EC50 [4]: 146 µM
Kd [5]: 92.9 ± 15 µM
EC50 [8]: ~3 µM and 2 µM
EC50 [9]: 61.9 µM
Kd [10]: 54.4 ± 13 µM
Molecule: C=CC1=C(C)/C(=C/c2[nH]c(Cc3[nH]c(/C=C4\NC(=O)C(C)=C4C=C)c(C)c3CCC(=O)O)c(CCC(=O)O)c2C)NC1=O [bilirubin, bilirubin IXa]
total neurons activated by the compound alone [6]: 7
scratching of Cluster−/− animals less than wild type [7]: approximately 75%

activation of MrgprA6 [11]: strongly activated
Molecule: mBD14: mouse Beta-Defensin-14, mouse homologue of hBD3 (FLPKTLRKFFCRIRGGRCAVLNCLGKEEQIGRCSNSGRKCCRKKK; ends and bridges not checked; cysteine pairing not given here)
response of MrgprA1, A4, A12, B3, and B6 [12]: did not show any response
